Experimental data reported in patent US9427482B2, “Agents for clearing biomolecules from circulation” (KONINKLIJKE PHILIPS N.V., priority 2010, dated 2016).

Experiments:
[1] = Organ residence times from mouse biodistribution data (MIRD)
Procedure: (§1) Radiation dosimetry estimates were calculated for a male human model (standard 73 Kg adult) and for a voxelized mouse model by using the mouse biodistribution data (Example 12, Tables 7 and 8) according to the MIRD methodology. Activity concentration in these organs were converted in percent injected dose (% ID) and decay corrected to the time of injection. The % ID for blood, muscle and bone were estimated from the % ID/g of tissue and assuming 6%, 42% and 11% of the body weight. Whenever possible the time activity curves were fitted by a two-phase exponential clearance function. The fitted function was then integrated analytically to yield the organ residence times (Table 9). […] The time activity curve of the tumor was fitted by a mono-exponential uptake function defined as F(t)=a0(1−exp(−a1t)).
For ^177Lu-DOTA-CC49 some radioactivity was collected in the mixture of urine and feces. […] For the pretargeted ^177Lu-tetrazine a total of 97.8% ID was excreted.

[2] = Human radiation dosimetry (OLINDA/EXM); details: human model, 73 Kg adult male
Procedure: as §1
Human radiation dosimetry (Table 10) were calculated using the above measured residence times and the OLINDA/EXM program with the following assumptions: 10% of the blood residence time was assigned to the heart content and 90% was assigned to the remainder of the body; the activity measured in the small and large intestines were assigned to the organ content but the radiation dose was assigned to the organ itself; activity in the large intestine was assigned in equal part to the upper and lower large intestines; activity in the bone was assigned in equal parts to the trabecular and […] bone components. The bladder voiding model in OLINDA/EXM was used. Residence time to the red marrow was calculated as a fraction of blood residence time (τmarrow=0.08 τblood).

tumor = test: Dual isotope biodistribution, mice pretargeted with CC49-TCO 20 (Example 10); assay type: in vivo; details: two doses of 12; 3 h after ^177Lu-tetrazine 15
Procedure: Tumor-bearing mice (ca. 100 mm^3 tumor size; n=4) were injected with ^125I-CC49 functionalized with 7.5 TCO-20 groups (100 μg/mouse, ca. 0.2 MBq). Thirty and 48 hours post-mAb injection the mice received one dose of clearing agent (galactose-MSA-tetrazine, 160 μg/dose) followed 2 h later by ^177Lu-tetrazine 15 (10 eq. with respect to the mAb, ca. 0.5 MBq). Three hours post-tetrazine injection the mice were anesthetized and sacrificed by cervical dislocation, blood was withdrawn by heart puncture, organs and tissues of interest were harvested and blotted dry. All collected samples were weighed and added with 1 mL PBS. The sample radioactivity was measured in a gamma-counter with a dual-isotope protocol (10-80 keV window for ^125I and 155-380 keV window for ^177Lu) along with standards to determine the percent injected dose per gram tissue (% ID/g).

[3] = Mouse radiation dosimetry (voxelized mouse model, EGSNRC)
Procedure: as §1
Radiation doses to the mouse organs were evaluated using the MIRD methodology where the S-factors in the mouse were calculated using a voxelized model of a mouse and the electron transport program EGSNRC to calculate energy deposition. The MOBY mouse phantom of Segars et al. was voxelized on a 0.2 mm grid and further modified to include the following organs: intestine wall and content, stomach wall and content, bladder wall and content and a 20 μl gall bladder. Finally, a 0.53 g tumor was added to the left side of the neck of the animal. Twenty-seven independent simulations, each for 10 millions decays, were performed with the program EGSNRC to calculate the energy deposition in each target organ for each source organ. The simulation included all decay particles from ^177Lu as listed in www.nndc.bnl.gov/MIRD tables. These S-factors were then used with the organ residence times measured above.

**Q.** For `O=C([O-])CN1CCN(CC(=O)[O-])CCN(CC(=O)NCCOCCOCCOCCOCCOCCOCCOCCOCCOCCOCCOCCNC(=O)CCCC(=O)Nc2ccc(-c3nnc(-c4ccccn4)nn3)nc2)CCN(CC(=O)[O-])CC1.[177Lu+3]` [^177Lu-tetrazine], which “Residence time Bladder Wall” value [1] is on record?
**A.** The value was 0.009 h.

**Q.** What about the “Residence time Blood” value [1] of the same molecule?
**A.** The value was 0.067 h.

**Q.** What about the “Residence time Bone” value [1] of the same molecule?
**A.** The value was 0.239 h.

**Q.** And the “Residence time Brain” value [1]?
**A.** The value was 0.001 h.

**Q.** What about the “Residence time Heart Wall” value [1] of the same molecule?
**A.** The value was 0.001 h.

**Q.** What about the “Residence time Kidneys” value [1] of the same molecule?
**A.** Its value is 0.293 h.

**Q.** What about the “Residence time Large Intestines” value [1] of the same molecule?
**A.** Its value is 0.23 h.

**Q.** What about the “Residence time Liver” value [1] of the same molecule?
**A.** The value was 0.302 h.

**Q.** And the “Residence time Lungs” value [1]?
**A.** The value was 0.031 h.

**Q.** What about the “Residence time Muscle” value [1] of the same molecule?
**A.** Its value is 0.19 h.

**Q.** And the “Residence time Ovaries” value [1]?
**A.** Its value is 0.0034 h.

**Q.** What about the “Residence time Small Intestines” value [1] of the same molecule?
**A.** The value was 0.082 h.

**Q.** And the “Residence time Spleen” value [1]?
**A.** The value was 0.023 h.

**Q.** What about the “Residence time Stomach” value [1] of the same molecule?
**A.** The value was 0.032 h.

**Q.** What about the “Residence time Tumor” value [1] of the same molecule?
**A.** The value was 3.93 h.

**Q.** What about the “Residence time Uterus” value [1] of the same molecule?
**A.** The value was 0.026 h.

**Q.** What about the “Residence time remainder of the body” value [1] of the same molecule?
**A.** Its value is 1 h.

**Q.** And the “Residence time Red Marrow” value ([1]; τmarrow=0.08 τblood)?
**A.** Its value is 0.0054 h.

**Q.** And the “Effective Dose” value [2]?
**A.** Its value is 0.0195 mSv/MBq.

**Q.** And the “Organ Radiation dose Adrenals” value [2]?
**A.** The value was 0.00162 mGy/MBq.

**Q.** What about the “Organ Radiation dose Bladder Wall” value [2] of the same molecule?
**A.** The value was 0.104 mGy/MBq.

**Q.** And the “Organ Radiation dose Brain” value [2]?
**A.** Its value is 0.000146 mGy/MBq.

**Q.** And the “Organ Radiation dose Breasts” value [2]?
**A.** The value was 0.0013 mGy/MBq.

**Q.** What about the “Organ Radiation dose Gall Bladder Wall” value [2] of the same molecule?
**A.** The value was 0.0018 mGy/MBq.

**Q.** And the “Organ Radiation dose Heart Wall” value [2]?
**A.** The value was 0.000537 mGy/MBq.

**Q.** What about the “Organ Radiation dose Kidneys” value [2] of the same molecule?
**A.** Its value is 0.0425 mGy/MBq.

**Q.** And the “Organ Radiation dose Liver” value [2]?
**A.** Its value is 0.0142 mGy/MBq.

**Q.** What about the “Organ Radiation dose Lower Large Int.” value [2] of the same molecule?
**A.** Its value is 0.0363 mGy/MBq.

**Q.** What about the “Organ Radiation dose Lungs” value [2] of the same molecule?
**A.** The value was 0.00288 mGy/MBq.

**Q.** And the “Organ Radiation dose Muscle” value [2]?
**A.** The value was 0.000861 mGy/MBq.

**Q.** What about the “Organ Radiation dose Osteogenic cells” value [2] of the same molecule?
**A.** Its value is 0.00172 mGy/MBq.

**Q.** And the “Organ Radiation dose Ovaries” value [2]?
**A.** Its value is 0.0341 mGy/MBq.

**Q.** And the “Organ Radiation dose Pancreas” value [2]?
**A.** The value was 0.00164 mGy/MBq.

**Q.** And the “Organ Radiation dose Red marrow” value [2]?
**A.** The value was 0.00302 mGy/MBq.

**Q.** What about the “Organ Radiation dose Skin” value [2] of the same molecule?
**A.** The value was 0.0029 mGy/MBq.

**Q.** What about the “Organ Radiation dose Small Intestines” value [2] of the same molecule?
**A.** The value was 0.0101 mGy/MBq.

**Q.** And the “Organ Radiation dose Spleen” value [2]?
**A.** Its value is 0.0112 mGy/MBq.

**Q.** And the “Organ Radiation dose Stomach Wall” value [2]?
**A.** The value was 0.00599 mGy/MBq.

**Q.** What about the “Organ Radiation dose Testes” value [2] of the same molecule?
**A.** Its value is 0.00151 mGy/MBq.

**Q.** And the “Organ Radiation dose Thymus” value [2]?
**A.** Its value is 0.00134 mGy/MBq.

**Q.** And the “Organ Radiation dose Thyroid” value [2]?
**A.** The value was 0.00132 mGy/MBq.

**Q.** And the “Organ Radiation dose Total Body” value [2]?
**A.** Its value is 0.00287 mGy/MBq.

**Q.** And the “Organ Radiation dose Upper large Int.” value [2]?
**A.** The value was 0.0231 mGy/MBq.

**Q.** What about the “Organ Radiation dose Uterus” value [2] of the same molecule?
**A.** The value was 0.0293 mGy/MBq.

**Q.** And the “^177Lu-tetrazine Blood” value (tumor)?
**A.** Its value is 0.03 ± 0.00 % ID/gram.

**Q.** And the “^177Lu-tetrazine Bone” value (tumor)?
**A.** The value was 0.08 ± 0.04 % ID/gram.

**Q.** And the “^177Lu-tetrazine Brain” value (tumor)?
**A.** Its value is 0.01 ± 0.00 % ID/gram.

**Q.** What about the “^177Lu-tetrazine Heart” value (tumor) of the same molecule?
**A.** The value was 0.05 ± 0.01 % ID/gram.

**Q.** What about the “^177Lu-tetrazine Kidney” value (tumor) of the same molecule?
**A.** Its value is 1.50 ± 0.24 % ID/gram.

**Q.** And the “^177Lu-tetrazine Liver” value (tumor)?
**A.** Its value is 0.19 ± 0.02 % ID/gram.

**Q.** What about the “^177Lu-tetrazine Lung” value (tumor) of the same molecule?
**A.** Its value is 0.24 ± 0.02 % ID/gram.

**Q.** And the “^177Lu-tetrazine Muscle” value (tumor)?
**A.** Its value is 0.03 ± 0.00 % ID/gram.

**Q.** What about the “^177Lu-tetrazine Spleen” value (tumor) of the same molecule?
**A.** The value was 0.09 ± 0.01 % ID/gram.

**Q.** What about the “^177Lu-tetrazine Tumor” value (tumor) of the same molecule?
**A.** The value was 9.25 ± 2.16 % ID/gram.

**Q.** What about the “^177Lu-tetrazine Tumor/organ Blood” value (tumor) of the same molecule?
**A.** Its value is 304 ± 80.

**Q.** And the “^177Lu-tetrazine Tumor/organ Bone” value (tumor)?
**A.** Its value is 142 ± 59.

**Q.** And the “^177Lu-tetrazine Tumor/organ Brain” value (tumor)?
**A.** The value was 1674 ± 243.

**Q.** What about the “^177Lu-tetrazine Tumor/organ Heart” value (tumor) of the same molecule?
**A.** The value was 187 ± 20.

**Q.** What about the “^177Lu-tetrazine Tumor/organ Kidney” value (tumor) of the same molecule?
**A.** The value was 6 ± 2.

**Q.** What about the “^177Lu-tetrazine Tumor/organ Liver” value (tumor) of the same molecule?
**A.** Its value is 50 ± 10.

**Q.** What about the “^177Lu-tetrazine Tumor/organ Lung” value (tumor) of the same molecule?
**A.** The value was 39 ± 8.

**Q.** And the “^177Lu-tetrazine Tumor/organ Muscle” value (tumor)?
**A.** Its value is 328 ± 96.

**Q.** And the “^177Lu-tetrazine Tumor/organ Spleen” value (tumor)?
**A.** Its value is 108 ± 22.

**Q.** What about the “Effective Dose” value [3] of the same molecule?
**A.** Its value is 15.6 mSv/MBq.

**Q.** And the “Organ Radiation dose Bladder Wall” value [3]?
**A.** Its value is 168 mGy/MBq.

**Q.** And the “Organ Radiation dose Brain” value [3]?
**A.** Its value is 1 mGy/MBq.

**Q.** And the “Organ Radiation dose Cranium” value [3]?
**A.** The value was 13 mGy/MBq.

**Q.** What about the “Organ Radiation dose Femur” value [3] of the same molecule?
**A.** Its value is 8 mGy/MBq.

**Q.** What about the “Organ Radiation dose Gall Bladder” value [3] of the same molecule?
**A.** The value was 2 mGy/MBq.

**Q.** And the “Organ Radiation dose Heart Wall” value [3]?
**A.** The value was 2 mGy/MBq.

**Q.** And the “Organ Radiation dose Intestine Wall” value [3]?
**A.** The value was 9 mGy/MBq.

**Q.** And the “Organ Radiation dose Kidneys” value [3]?
**A.** Its value is 58 mGy/MBq.

**Q.** What about the “Organ Radiation dose Liver” value [3] of the same molecule?
**A.** Its value is 10 mGy/MBq.

**Q.** What about the “Organ Radiation dose Lungs” value [3] of the same molecule?
**A.** Its value is 5 mGy/MBq.

**Q.** What about the “Organ Radiation dose Pancreas” value [3] of the same molecule?
**A.** The value was 2 mGy/MBq.

**Q.** And the “Organ Radiation dose Ribs” value [3]?
**A.** Its value is 8 mGy/MBq.

**Q.** And the “Organ Radiation dose Skin” value [3]?
**A.** Its value is 1 mGy/MBq.

**Q.** And the “Organ Radiation dose Spine” value [3]?
**A.** The value was 8 mGy/MBq.

**Q.** What about the “Organ Radiation dose Spine (marrow)” value [3] of the same molecule?
**A.** Its value is 7 mGy/MBq.

**Q.** And the “Organ Radiation dose Spleen” value [3]?
**A.** Its value is 15 mGy/MBq.

**Q.** And the “Organ Radiation dose Stomach Wall” value [3]?
**A.** The value was 16 mGy/MBq.

**Q.** And the “Organ Radiation dose Testes (ovaries)” value [3]?
**A.** Its value is 1 mGy/MBq.

**Q.** What about the “Organ Radiation dose Thyroid” value [3] of the same molecule?
**A.** The value was 1 mGy/MBq.

**Q.** What about the “Organ Radiation dose Trachea” value [3] of the same molecule?
**A.** The value was 2 mGy/MBq.

**Q.** And the “Radiation dose Whole Body” value [3]?
**A.** Its value is 5 mGy/MBq.

**Q.** And the “Radiation dose Tumor” value ([3]; 0.53 g tumor)?
**A.** Its value is 479 mGy/MBq.
